Results published in PubChem BioAssay AID330 (DTP/NCI, 2004).
Several values for one entry are separate records, joined by “and”; a condition that tells them apart may be missing. Equal entries are not always repeated. Inconclusive results and toxic doses are left out.

Test system: P388 leukemia ip, CD2F1 mice, survival T/C
Experiment: NCI In Vivo Anticancer Drug Screen. Data for tumor model P388 Leukemia (intraperitoneal) in CD2F1 (CDF1) mice
Conditions: endpoint: median survival time, higher = longer survival
Outline: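 Mice carrying the transplanted tumor received test compound or vehicle. Survival was recorded in each group, and the value is the treated-group measurement divided by that of the vehicle-treated control group.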

[1] = dose: 50.0 mg/kg/injection, schedule: Q01DX001 (ip), vehicle: saline with Tween-80
[2] = dose: 50.0 mg/kg/injection, schedule: Q01DX009 (ip), vehicle: saline with Tween-80
[3] = dose: 100.0 mg/kg/injection, schedule: Q01DX001 (ip), vehicle: saline with Tween-80
[4] = dose: 100.0 mg/kg/injection, schedule: Q01DX009 (ip), vehicle: saline with Tween-80
[5] = dose: 200.0 mg/kg/injection, schedule: Q01DX001 (ip), vehicle: saline with Tween-80
[6] = dose: 200.0 mg/kg/injection, schedule: Q01DX009 (ip), vehicle: saline with Tween-80
[7] = dose: 60.0 mg/kg/injection, schedule: Q01DX005 (ip), vehicle: saline with Tween-80
[8] = dose: 120.0 mg/kg/injection, schedule: Q01DX005 (ip), vehicle: saline with Tween-80
[9] = dose: 400.0 mg/kg/injection, schedule: Q01DX001 (ip), vehicle: saline with Tween-80
[10] = dose: 50.0 mg/kg/injection, schedule: Q01DX005 (ip), vehicle: saline
[11] = dose: 100.0 mg/kg/injection, schedule: Q01DX005 (ip), vehicle: saline
[12] = dose: 100.0 mg/kg/injection, schedule: Q01DX001 (ip), vehicle: Klucel (hydroxypropylcellulose) (HPC)
[13] = dose: 200.0 mg/kg/injection, schedule: Q01DX001 (ip), vehicle: Klucel (hydroxypropylcellulose) (HPC)
[14] = dose: 400.0 mg/kg/injection, schedule: Q01DX001 (ip), vehicle: Klucel (hydroxypropylcellulose) (HPC)
[15] = dose: 50.0 mg/kg/injection, schedule: Q01DX005 (ip), vehicle: Klucel (hydroxypropylcellulose) (HPC)
[16] = dose: 100.0 mg/kg/injection, schedule: Q04DX003 (ip), vehicle: saline with Tween-80

O=C(O)c1cccc(C(=O)O)c1O
T/C [1]: 102 % of control | T/C [2]: 100 % of control | T/C [3]: 105 % of control | T/C [4]: 103 % of control | T/C [5]: 110 % of control | T/C [6]: 94 % of control

Cc1ccc([C@H]2N[C@@H]2c2ccccn2)cc1
T/C [7]: 98 % of control | T/C [8]: 103 % of control

CC1=CCCC2C1(C)CCC(C)C2(C)Cc1cc(O)ccc1O (stereo not drawn)
T/C (dose: 12.5 mg/kg/injection, schedule: Q01DX009 (ip), vehicle: saline with Tween-80): 100 % of control | T/C (dose: 25.0 mg/kg/injection, schedule: Q01DX009 (ip), vehicle: saline with Tween-80): 103 % of control | T/C [2]: 107 % of control | T/C [3]: 97 % of control | T/C [4]: 94 % of control | T/C [5]: 99 % of control | T/C [9]: 88 % of control

CN(N=O)C(=O)NCC1OC(n2cnc3c(=O)[nH]cnc32)C(O)C1O (stereo not drawn)
T/C [10]: 100 % of control | T/C [11]: 105 % of control | T/C (dose: 200.0 mg/kg/injection, schedule: Q01DX005 (ip), vehicle: saline): 121 % of control

COc1ccc(CC2C=CCN2C(=O)OCc2ccccc2)cc1 (stereo not drawn)
T/C [12]: 106 % of control | T/C [13]: 99 % of control | T/C [14]: 99 % of control

COc1ccc(Br)c(C(=O)Sc2nnnn2-c2cccc(Cl)c2)c1
T/C [2]: 111 % of control | T/C [4]: 116 % of control | T/C [6]: 115 % of control

CCOC(=O)Nc1nc2ccc(NC(C)=O)cc2s1
T/C (dose: 6.25 mg/kg/injection, schedule: Q01DX009 (ip), vehicle: Klucel (hydroxypropylcellulose) (HPC)): 104 % of control | T/C (dose: 12.5 mg/kg/injection, schedule: Q01DX009 (ip), vehicle: Klucel (hydroxypropylcellulose) (HPC)): 105 % of control | T/C (dose: 25.0 mg/kg/injection, schedule: Q01DX009 (ip), vehicle: Klucel (hydroxypropylcellulose) (HPC)): 102 % of control | T/C (dose: 50.0 mg/kg/injection, schedule: Q01DX009 (ip), vehicle: Klucel (hydroxypropylcellulose) (HPC)): 96 % of control

CCCCCCn1c(=O)cc2n(c1=O)CCC2
T/C [7]: 103 % of control | T/C [8]: 101 % of control

Cc1cc2cc3c(=O)[nH]c(=O)cc-3n(CC(O)C(O)C(O)CO)c2cc1C (stereo not drawn)
T/C (dose: 12.5 mg/kg/injection, schedule: Q01DX009 (ip), vehicle: other): 102 % of control | T/C (dose: 25.0 mg/kg/injection, schedule: Q01DX009 (ip), vehicle: other): 96 % of control | T/C (dose: 50.0 mg/kg/injection, schedule: Q01DX009 (ip), vehicle: other): 96 % of control | T/C (dose: 100.0 mg/kg/injection, schedule: Q01DX009 (ip), vehicle: other): 95 % of control

CCC1(C=O)NC(=O)NC1=O (stereo not drawn)
T/C (dose: 50.0 mg/kg/injection, schedule: Q01DX005 (ip), vehicle: saline with Tween-80): 91 % of control | T/C (dose: 100.0 mg/kg/injection, schedule: Q01DX005 (ip), vehicle: saline with Tween-80): 95 % of control | T/C (dose: 200.0 mg/kg/injection, schedule: Q01DX005 (ip), vehicle: saline with Tween-80): 87 % of control

Cc1nc2nc(O)c(Cc3ccccc3)c(=O)n2nc1C
T/C [15]: 95 % of control | T/C (dose: 100.0 mg/kg/injection, schedule: Q01DX005 (ip), vehicle: Klucel (hydroxypropylcellulose) (HPC)): 93 % of control | T/C (dose: 200.0 mg/kg/injection, schedule: Q01DX005 (ip), vehicle: Klucel (hydroxypropylcellulose) (HPC)): 95 % of control

Cc1ccc(C2N(CCN3C(=O)CS(=O)(=O)C3c3ccc(C)s3)C(=O)CS2(=O)=O)s1 (stereo not drawn)
T/C [3]: 101 % of control | T/C (dose: 100.0 mg/kg/injection, schedule: Q04DX002 (ip), vehicle: saline with Tween-80): 97 % of control | T/C [5]: 94 % of control | T/C (dose: 200.0 mg/kg/injection, schedule: Q04DX002 (ip), vehicle: saline with Tween-80): 87 % of control | T/C [9]: 91 % of control

CC1(C)CCC2(C(=O)OC3OC(CO)C(O)C(O)C3O)CCC3(C)C(=CCC4C5(C)CCC(OC6OC(CO)C(O)C(O)C6O)C(C)(C)C5CCC43C)C2C1 (stereo not drawn)
T/C (dose: 3.12 mg/kg/injection, schedule: Q01DX005 (ip), vehicle: Klucel (hydroxypropylcellulose) (HPC)): 98 % of control | T/C (dose: 6.25 mg/kg/injection, schedule: Q01DX005 (ip), vehicle: Klucel (hydroxypropylcellulose) (HPC)): 104 % of control | T/C (dose: 12.5 mg/kg/injection, schedule: Q01DX005 (ip), vehicle: Klucel (hydroxypropylcellulose) (HPC)): 104 % of control | T/C (dose: 25.0 mg/kg/injection, schedule: Q01DX005 (ip), vehicle: Klucel (hydroxypropylcellulose) (HPC)): 95 % of control | T/C [15]: 102 % of control

Cc1cccnc1-n1c(N)cc(=O)[nH]c1=S
T/C [1]: 100 % of control | T/C [3]: 100 % of control | T/C [5]: 86 % of control

O=NN(CCF)C(=O)Oc1ccc([N+](=O)[O-])cc1
T/C (dose: 12.5 mg/kg/injection, schedule: Q01DX001 (ip), vehicle: Klucel (hydroxypropylcellulose) (HPC)): 114 % of control | T/C (dose: 25.0 mg/kg/injection, schedule: Q01DX001 (ip), vehicle: Klucel (hydroxypropylcellulose) (HPC)): 112 % of control

CS(=O)CCCC#N (stereo not drawn)
T/C (dose: 18.75 mg/kg/injection, schedule: Q01DX009 (ip), vehicle: saline with Tween-80): 115 % of control | T/C (dose: 37.5 mg/kg/injection, schedule: Q01DX009 (ip), vehicle: saline with Tween-80): 100 % of control | T/C (dose: 75.0 mg/kg/injection, schedule: Q01DX009 (ip), vehicle: saline with Tween-80): 110 % of control | T/C (dose: 150.0 mg/kg/injection, schedule: Q01DX009 (ip), vehicle: saline with Tween-80): 100 % of control | T/C (dose: 300.0 mg/kg/injection, schedule: Q01DX009 (ip), vehicle: saline with Tween-80): 105 % of control

FC12CCC(c3ccccc3)(CC1)CC2
T/C (dose: 100.0 mg/kg/injection, schedule: Q04DX003 (ip), vehicle: Klucel (hydroxypropylcellulose) (HPC)): 98 % of control | T/C (dose: 200.0 mg/kg/injection, schedule: Q04DX003 (ip), vehicle: Klucel (hydroxypropylcellulose) (HPC)): 100 % of control | T/C (dose: 400.0 mg/kg/injection, schedule: Q04DX003 (ip), vehicle: Klucel (hydroxypropylcellulose) (HPC)): 103 % of control

CCN(CC)CCSS(=O)(=O)CCN(CC)CC
T/C [10]: 100 % of control | T/C [11]: 109 % of control

Cn1nnn(Cc2ccccc2)/c1=N/C(=S)Nc1ccccc1
T/C [12]: 99 % of control | T/C [13]: 95 % of control | T/C [14]: 86 % of control

CC(=O)NCCc1nc(-c2nc(C(=O)NCCCN)cs2)cs1
T/C (dose: 12.5 mg/kg/injection, schedule: Q01DX009 (ip), vehicle: water): 93 % of control | T/C (dose: 25.0 mg/kg/injection, schedule: Q01DX009 (ip), vehicle: water): 98 % of control | T/C (dose: 50.0 mg/kg/injection, schedule: Q01DX009 (ip), vehicle: water): 108 % of control | T/C (dose: 100.0 mg/kg/injection, schedule: Q01DX009 (ip), vehicle: water): 99 % of control | T/C (dose: 200.0 mg/kg/injection, schedule: Q01DX009 (ip), vehicle: water): 98 % of control

S=P(NCCNP(=S)(N1CC1)N1CC1)(N1CC1)N1CC1
T/C (dose: 25.0 mg/kg/injection, schedule: Q04DX003 (ip), vehicle: saline with Tween-80): 122 % of control | T/C (dose: 33.0 mg/kg/injection, schedule: Q04DX003 (ip), vehicle: saline with Tween-80): 165 % of control | T/C [2]: 95 % of control | T/C (dose: 50.0 mg/kg/injection, schedule: Q04DX003 (ip), vehicle: saline with Tween-80): 170 % of control and 177 % of control | T/C (dose: 75.0 mg/kg/injection, schedule: Q04DX003 (ip), vehicle: saline with Tween-80): 90 % of control | T/C [16]: 86 % of control

CCOC(OCC)c1cccc([N+](=O)[O-])c1
T/C [16]: 112 % of control | T/C (dose: 200.0 mg/kg/injection, schedule: Q04DX003 (ip), vehicle: saline with Tween-80): 106 % of control | T/C (dose: 400.0 mg/kg/injection, schedule: Q04DX003 (ip), vehicle: saline with Tween-80): 117 % of control

O=C(NCCSCCSCCSCCNC(=O)Oc1ccccc1)Oc1ccccc1
T/C [12]: 92 % of control | T/C [13]: 91 % of control

CC(C)[C@H](C)C(=O)C1OCOC(C2CC(=O)NC(=O)C2)[C@@H]1O (stereo partly drawn)
T/C (dose: 0.01 mg/kg/injection, schedule: Q01DX009 (ip), vehicle: distilled water + alcohol): 102 % of control | T/C (dose: 0.03 mg/kg/injection, schedule: Q01DX009 (ip), vehicle: distilled water + alcohol): 109 % of control | T/C (dose: 0.06 mg/kg/injection, schedule: Q01DX009 (ip), vehicle: distilled water + alcohol): 109 % of control | T/C (dose: 0.12 mg/kg/injection, schedule: Q01DX009 (ip), vehicle: distilled water + alcohol): 100 % of control
